Results reported in patent US20030170730A1, “Assay method, peptides and reagent kits for testing mrp-specific inhibitors” (priority 2000, published 2003).
One block for each compound: values may come before it.

Legend:
MRP1-MDR1 chimeras = assay type: biochemical, human; settings: pretreatment with 1 mM
Experimental: (§1) The filters were washed twice with 0.5 ml of cold transport buffer, and filter-bound radioactivity was measured in scintillation fluid (Optifluor, Packard). ATP-dependent transport was calculated by subtracting the activity values obtained with AMP from those in the presence of ATP.
Covalent photoaffinty labeling of the proteins was performed with Mg-8-azido-[α-^32P)-ATP in the presence of vanadate as a trapping agent (set Materials and Methods).

MRP1 variants = MRP1 variants (Homo sapiens, UniProt P33527); experiment: Vanadate-dependent nucleotide trapping by MRP1 variants in Sf9 membranes; settings: pretreatment with 1 mM
MRP1 = MRP1 (Homo sapiens, UniProt P33527); experiment: ATP-dependent tracer (LTC4, NEM-GS) uptake in Sf9 membrane vesicles containing MRP1; settings: 37° C.
MRP1, sequence (P33527 whole entry): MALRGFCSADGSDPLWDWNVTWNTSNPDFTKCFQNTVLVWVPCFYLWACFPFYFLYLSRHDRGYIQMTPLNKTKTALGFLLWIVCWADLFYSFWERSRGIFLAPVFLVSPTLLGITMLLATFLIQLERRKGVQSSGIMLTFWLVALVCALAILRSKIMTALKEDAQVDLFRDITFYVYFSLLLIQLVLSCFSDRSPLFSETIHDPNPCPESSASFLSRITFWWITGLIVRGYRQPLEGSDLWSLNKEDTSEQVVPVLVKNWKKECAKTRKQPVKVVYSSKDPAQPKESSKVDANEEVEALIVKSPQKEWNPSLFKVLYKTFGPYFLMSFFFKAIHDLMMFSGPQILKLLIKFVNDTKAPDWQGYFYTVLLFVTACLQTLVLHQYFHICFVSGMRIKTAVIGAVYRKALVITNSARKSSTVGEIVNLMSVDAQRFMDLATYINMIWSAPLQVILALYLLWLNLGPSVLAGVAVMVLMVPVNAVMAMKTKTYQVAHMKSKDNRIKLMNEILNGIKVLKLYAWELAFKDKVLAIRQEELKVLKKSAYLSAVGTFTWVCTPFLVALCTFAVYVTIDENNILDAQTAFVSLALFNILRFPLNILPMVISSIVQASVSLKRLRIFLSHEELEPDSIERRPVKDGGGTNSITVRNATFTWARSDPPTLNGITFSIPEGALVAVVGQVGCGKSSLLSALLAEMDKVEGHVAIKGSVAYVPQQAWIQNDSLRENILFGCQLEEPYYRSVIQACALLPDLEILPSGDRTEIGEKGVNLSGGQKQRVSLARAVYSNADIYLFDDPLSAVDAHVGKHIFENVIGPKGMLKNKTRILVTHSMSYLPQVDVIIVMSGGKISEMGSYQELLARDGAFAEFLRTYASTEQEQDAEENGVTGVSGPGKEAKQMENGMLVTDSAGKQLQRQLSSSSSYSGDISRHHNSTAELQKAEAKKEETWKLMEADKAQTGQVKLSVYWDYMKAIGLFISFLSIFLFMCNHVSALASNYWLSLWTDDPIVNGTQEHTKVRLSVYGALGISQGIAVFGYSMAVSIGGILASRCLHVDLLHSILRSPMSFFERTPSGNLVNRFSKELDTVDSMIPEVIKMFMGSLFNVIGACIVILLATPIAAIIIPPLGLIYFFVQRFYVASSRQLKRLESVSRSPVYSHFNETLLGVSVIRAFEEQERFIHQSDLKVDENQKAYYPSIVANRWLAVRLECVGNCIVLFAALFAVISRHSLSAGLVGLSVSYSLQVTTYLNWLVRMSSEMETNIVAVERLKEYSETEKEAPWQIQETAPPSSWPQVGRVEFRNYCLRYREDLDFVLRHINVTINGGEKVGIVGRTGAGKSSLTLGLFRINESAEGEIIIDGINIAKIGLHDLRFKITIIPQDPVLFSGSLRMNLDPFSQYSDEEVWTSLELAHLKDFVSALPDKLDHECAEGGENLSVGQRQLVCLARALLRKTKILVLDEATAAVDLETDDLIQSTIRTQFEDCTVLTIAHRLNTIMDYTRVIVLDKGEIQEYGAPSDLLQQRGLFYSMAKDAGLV
Experimental: as §1

co-expressed ΔMRP1+L0 = co-expressed ΔMRP1+L0 (Homo sapiens, UniProt P33527); experiment: ATP-dependent tracer (LTC4, NEM-GS) uptake in Sf9 membrane vesicles containing co-expressed ΔMRP1 and L0; settings: read-out: Km for transport of NEM-GS
co-expressed ΔMRP1+L0, sequence (P33527 281-1531, stated change not applied): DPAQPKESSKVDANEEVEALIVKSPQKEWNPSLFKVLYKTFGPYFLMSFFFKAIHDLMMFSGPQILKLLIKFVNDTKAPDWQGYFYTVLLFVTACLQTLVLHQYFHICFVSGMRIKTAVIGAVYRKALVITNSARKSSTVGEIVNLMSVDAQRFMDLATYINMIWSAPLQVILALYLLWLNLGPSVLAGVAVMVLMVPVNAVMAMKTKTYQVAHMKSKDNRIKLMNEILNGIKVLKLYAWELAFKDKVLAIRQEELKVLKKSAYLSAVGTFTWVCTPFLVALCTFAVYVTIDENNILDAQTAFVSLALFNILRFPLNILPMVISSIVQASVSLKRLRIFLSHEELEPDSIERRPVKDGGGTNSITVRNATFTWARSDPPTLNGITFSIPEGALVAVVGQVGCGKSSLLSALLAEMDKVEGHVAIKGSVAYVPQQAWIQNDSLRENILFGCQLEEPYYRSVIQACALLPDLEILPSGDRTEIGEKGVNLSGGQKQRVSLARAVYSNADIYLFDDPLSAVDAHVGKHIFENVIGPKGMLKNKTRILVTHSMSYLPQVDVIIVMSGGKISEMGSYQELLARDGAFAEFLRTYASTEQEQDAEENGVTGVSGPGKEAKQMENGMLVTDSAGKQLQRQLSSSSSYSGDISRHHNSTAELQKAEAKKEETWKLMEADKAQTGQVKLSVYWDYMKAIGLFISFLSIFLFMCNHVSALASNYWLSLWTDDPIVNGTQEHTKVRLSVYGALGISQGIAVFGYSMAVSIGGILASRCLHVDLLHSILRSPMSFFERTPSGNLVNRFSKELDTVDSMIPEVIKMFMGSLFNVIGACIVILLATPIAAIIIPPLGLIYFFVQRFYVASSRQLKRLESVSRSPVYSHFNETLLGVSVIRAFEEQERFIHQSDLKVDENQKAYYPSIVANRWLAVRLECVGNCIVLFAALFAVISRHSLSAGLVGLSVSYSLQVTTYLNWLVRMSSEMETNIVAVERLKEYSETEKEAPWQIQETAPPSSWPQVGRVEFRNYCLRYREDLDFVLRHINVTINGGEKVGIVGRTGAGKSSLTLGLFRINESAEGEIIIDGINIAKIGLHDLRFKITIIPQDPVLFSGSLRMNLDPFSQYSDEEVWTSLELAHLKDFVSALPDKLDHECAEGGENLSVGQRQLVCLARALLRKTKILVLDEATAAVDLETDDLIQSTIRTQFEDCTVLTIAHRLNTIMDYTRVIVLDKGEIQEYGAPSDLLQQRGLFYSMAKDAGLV
co-expressed ΔMRP1+L0, sequence (P33527 204-281, stated change not applied): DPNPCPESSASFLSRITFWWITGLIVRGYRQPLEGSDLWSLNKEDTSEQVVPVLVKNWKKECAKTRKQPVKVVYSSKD
Experimental: as §1

[1] = test system: murine and human cells expressing MRP; settings: cited from earlier work

MRP1 variants, sequence (P33527 281-1531): as the sequence (P33527 281-1531, stated change not applied) above
MRP1 variants, sequence (P33527 with tags, fused parts or gaps): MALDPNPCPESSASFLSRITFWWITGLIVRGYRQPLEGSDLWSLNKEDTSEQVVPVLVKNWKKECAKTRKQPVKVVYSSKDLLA

inhibition of nucleotide trapping (MRP1 variants): full inhibition
Compound: CCN1C(=O)C=CC1=O [N-ethylmaleimide]
inhibition of nucleotide trapping (MRP1-MDR1 chimeras): full inhibition

initial rate of ATP-dependent NEM-GS transport (MRP1; 50 μM NEM-GS, MRP1 containing membranes): about 250 pmol mg^−1 | Km (MRP1; read-out: Km for transport of NEM-GS, wild-type MRP1, Sf9 membrane vesicles): 150 µM | Km (co-expressed ΔMRP1+L0): ~400 µM
Compound: CCN1C(=O)CC(SC[C@H](NC(=O)CC[C@H](N)C(=O)O)C(=O)NCC(=O)O)C1=O (stereo partly drawn) [NEM-GS]

Compound: COc1ccc2c(c1)c(CC(=O)O)c(C)n2C(=O)c1ccc(Cl)cc1 [indomethacine]
efflux of fluorescent dye BCECF [1]: effectively inhibited
